# Data from patent US20230067847A1, “COMBINATION OF BERBERINE AND DERIVATIVES THEREOF, AND VITAMIN B12” (NANJING NUTRABUILDING BIO-TECH CO., LTD., priority 2021, published 2023).
# What was measured:
# [1] = test system: high-fat diet (HFD) mice; experiment: Insulin tolerance test in HFD mice after 3 months of supplementation; format: in vivo; conditions: 90 minutes after subcutaneous insulin 0.4 U/kg, FIG. 1d
# Experimental: (§1) The high-fat diet (HFD, containing 60% fat by energy) mice at 8 weeks of age were divided into three groups: (1) non-supplement group (Con, n=5); (2) DHB supplement group (DHB, 100 mg/kg, n=5); […] VB12=100 mg/kg: 200 mg/kg, n=5). All mice were administered these things before each major meal for once daily (2 g/kg body weight) by gavage in normal saline solution for 3 months. Blood samples were collected from tail tips in a fasting state to measure serum VB 12, serum homocysteine, glucose, and serum holo-transcobalamin II (holo-TCII, a biologically active fraction for TCII receptors synthesis) and weighed the mice for 0th, 2th, 4th, 6th, 8th, 10th and 12th week. After 3 months of supplementation, glycated hemoglobin (HbA1c) was measured. Also, the insulin tolerance test was performed after 3 months of supplementation after subcutaneous injection of insulin (0.4 U/kg, 0.05 ml/10 g body weight) for 0, 30, 90 minutes. […] Elevated homocysteine was defined as > 15 µM/L. Vitamin B12 levels and holo-TCII were measured by using immunoassay analyzer to confirm the improvement in TCII receptors synthesis and VB12 levels. Serum homocysteine levels were measured using the chemiluminescent microparticle immunoassay to show the VB12 levels. HbA1c was determined with automated glycohemoglobin analyzer, which can indicate the effect of blood glucose control during the trial. […]
# [2] = test system: high-fat diet (HFD) mice; experiment: Serum VB12 level in HFD mice (immunoassay analyzer); conditions: mouse, in vivo
# Experimental: The high-fat diet (HFD, containing 60% fat by energy) mice at 8 weeks of age were divided into three groups: (1) non-supplement group (Con, n=5); (2) DHB supplement group (DHB, 100 mg/kg, n=5); (3) the combination of DHB and VB12 supplement group (DHB+VB12, DHB: VB12=100 mg/kg: 200 mg/kg, n=5). All mice were administered these things before each major meal for once daily (2 g/kg body weight) by gavage in normal saline solution for 3 months.
# Blood samples were collected from tail tips in a fasting state to measure serum VB 12, serum homocysteine, glucose, and serum holo-transcobalamin II (holo-TCII, a biologically active fraction for TCII receptors synthesis) and weighed the mice for 0th, 2th, 4th, 6th, 8th, 10th and 12th week. After 3 months of supplementation, glycated hemoglobin (HbA1c) was measured. […] Elevated homocysteine was defined as > 15 µM/L. Vitamin B12 levels and holo-TCII were measured by using immunoassay analyzer to confirm the improvement in TCII receptors synthesis and VB12 levels. Serum homocysteine levels were measured using the chemiluminescent microparticle immunoassay to show the VB12 levels. HbA1c was determined with automated glycohemoglobin analyzer, which can indicate the effect of blood glucose control during the trial. […]
# [3] = test system: high-fat diet (HFD) mice; experiment: Glycated hemoglobin (HbA1c) in HFD mice after 3 months of supplementation; format: in vivo; conditions: after three months of supplementation, FIG. 1e
# Experimental: as §1
# [4] = test system: high-fat diet (HFD) mice; experiment: Fasting blood glucose in HFD mice during 3 months of supplementation; format: in vivo; conditions: after three months (12th week), gavage once daily, FIG. 1a
# Experimental: as §1
smiles,measurement,setting,value
"COc1ccc2c(c1OC)CN1CCc3cc4c(cc3C1=C2)OCO4 [DHB, dihydroberberine]",blood glucose level lower than control group in insulin tolerance test,[1],about 15%
same,serum total VB12 change,[2],significantly decreased
same,HbA1c level decreased compared to the control group,[3],about 20%
same,blood glucose level decreased compared to the control group,[4],about 35%
